In ChEMBL document CHEMBL1158544, “The evaluation of quinonoid compounds against Trypanosoma cruzi: synthesis of imidazolic anthraquinones, nor-beta-lapachone derivatives and beta-lapachone-based 1,2,3-triazoles” (Bioorg Med Chem, 2010):

Key:
PBMC = assay: Cytotoxicity against human PBMC after 72 hrs by alamar blue assay; type: cell-based
Trypanosoma cruzi = assay: Antitrypanosomal activity against Trypanosoma cruzi Y blood stream trypomastigotes after 24 hrs; type: functional, organism-based

Row | SMILES | IC50 (Trypanosoma cruzi) | IC50 (PBMC)
1 | CC1(C)OC2=C(C(=O)C(=O)c3ccccc32)[C@H](n2cc(-c3ccc(Br)cc3)nn2)[C@H]1Br | 440 µM | 2.1 µM
2 | CC1(C)OC2=C(C(=O)C(=O)c3ccccc32)[C@H](n2cc(-c3ccc(F)cc3)nn2)[C@H]1Br | 220 µM | 2.1 µM
3 | CC(C)=CCC1=C(OC2(CC=C(C)C)C(=O)C(=O)c3ccccc3C2=O)C(=O)c2ccccc2C1=O (configuration not stated) | 233 µM | 12 µM
4 | O=C1c2ccccc2C(=O)c2c1ccc1nc(-c3ccc(-c4ccccc4)cc3)[nH]c21 | > 4000 µM | 12 µM
5 | O=C1c2ccccc2C(=O)c2c1ccc1nc(-c3cccc4ccccc34)[nH]c21 | > 4000 µM | 2.1 µM
6 | CC1(C)OC2=C(C(=O)c3ccccc3C2=O)[C@@H](N=[N+]=[N-])[C@@H]1Br | 248 µM | 2.1 µM
7 | Cc1ccc([N+](=O)[O-])cc1NC1C2=C(OC1(C)C)c1ccccc1C(=O)C2=O (configuration not stated) | 284 µM | 12 µM
8 | CC1(C)OC2=C(C(=O)C(=O)c3ccccc32)[C@H](n2cc(-c3ccccc3)nn2)[C@H]1Br | 313 µM | 2.1 µM
9 | CC(C)=CC1=C(O)C(=O)c2ccccc2C1=O | – | 2.1 µM
10 | CC1(C)OC2=C(C(=O)C(=O)c3ccccc32)C1OC1CCCCC1 (configuration not stated) | 558 µM | 2.1 µM
11 | CC(C)OC1C2=C(OC1(C)C)c1ccccc1C(=O)C2=O (configuration not stated) | 268 µM | 2.1 µM
12 | CC1(C)OC2=C(C(=O)C(=O)c3ccccc32)C1Nc1ccc(F)c([N+](=O)[O-])c1 (configuration not stated) | 526 µM | –
13 | O=C1c2ccccc2C(=O)c2c1ccc1nc(-c3ccccc3)[nH]c21 | > 2000 µM | 12 µM
14 | Cc1ccc(-c2nc3ccc4c(c3[nH]2)C(=O)c2ccccc2C4=O)cc1 | > 4000 µM | 12 µM
15 | CC(C)=CCC1=C(O)C(=O)c2ccccc2C1=O [LAPACHOL] | – | 2.1 µM
16 | CC1(C)CCC2=C(O1)c1ccccc1C(=O)C2=O [LAPACHONE] | 392 µM | 2.1 µM
17 | CC1(C)CC2=C(O1)c1ccccc1C(=O)C2=O [NOR-BETA-LAPACHONE] | > 4800 µM | 2.1 µM

The next lines start with results.

Row | IC50 (Trypanosoma cruzi) | SMILES | IC50 (PBMC)
18 | 23.4 µM | CC1(C)OC2=C(C(=O)C(=O)c3ccccc32)[C@H](N=[N+]=[N-])[C@H]1Br | 2.1 µM
19 | 106 µM | COc1ccc(-c2cn([C@H]3C4=C(OC(C)(C)[C@@H]3Br)c3ccccc3C(=O)C4=O)nn2)cc1 | 2.1 µM
20 | 24.9 µM | CC1(C)OC2=C(C(=O)C(=O)c3ccccc32)C1Nc1ccc(Br)cc1Br (configuration not stated) | 2.1 µM
21 | 43.8 µM | CC1(C)OC2=C(C(=O)C(=O)c3ccccc32)C1Nc1ccc(Cl)c(Cl)c1 (configuration not stated) | 2.1 µM
22 | 59.6 µM | COc1ccc(NC2C3=C(OC2(C)C)c2ccccc2C(=O)C3=O)c([N+](=O)[O-])c1 (configuration not stated) | 2.1 µM
23 | 55.6 µM | CC1(C)OC2=C(C(=O)C(=O)c3ccccc32)C1Nc1ccccc1[N+](=O)[O-] (configuration not stated) | 2.1 µM
24 | 156 µM | Cc1cc([N+](=O)[O-])ccc1NC1C2=C(OC1(C)C)c1ccccc1C(=O)C2=O (configuration not stated) | 2.1 µM
25 | 47.2 µM | CC(C)COC1C2=C(OC1(C)C)c1ccccc1C(=O)C2=O (configuration not stated) | 2.1 µM
